Test results published in patent US12564630B2, “Vaccine adjuvants” (priority 2020, dated 2026).

How the values were obtained:
[1] = Chemisorption to aluminum hydroxide ("Alum") quantified by liquid chromatography-mass spectrometry; format: physicochemical
From the text: Chemisorption was quantified by liquid chromatography-mass spectrometry. When appropriate ratios of the adjuvant and aluminum hydroxide are used, all of the adjuvant is bound to alum. This ensures delivery of the adjuvant to the draining lymph nodes, and minimizes systemic exposure. It is important not to exceed the ratio to avoid the presence of excess small molecule adjuvant. […] The ratio can range from 1:10 (mg Compound 1:mL aluminum hydroxide gel) to 10:1, or from 1:8 to 8:1, or 1:5 to 5:1; or 1:2 to 2:1, or about 1:1.
The Compound is chemisorbed onto aluminum hydroxide to form an adjuvant complex referred to herein as (“Alhydroxiquim-II”). The trihydroxybenzyl appendage of the adjuvant Compound 1 ligand-exchanges with the hydroxyl groups of aluminum hydroxide (chemisorption). When appropriate ratios of the adjuvant and aluminum hydroxide are used, all of the adjuvant is bound to alum. This ensures delivery of the adjuvant to the draining lymph nodes, and minimizes systemic exposure. It is important not to exceed the ratio to avoid the presence of excess small molecule adjuvant.
Chemisorption was quantified by liquid chromatography-mass spectrometry.

[2] = human trials; cited from earlier work
[3] = 10 mg of the small-molecule to 10 mL of standard Alhydrogel (10 mg of aluminum content/mL)

| Structure (SMILES) | binding to aluminum hydroxide gel (Alhydrogel) [1, 3] | concentrations of free small molecule [1, 3] | chemisorption to “Alum” ([1]; quantified by LC-MS, FIG. 2) | tolerability (systemic side effects including fever, headache, malaise, and myalgia) [2] |
| --- | --- | --- | --- | --- |
| CCCCc1nc2c(N)nc3ccccc3c2n1Cc1cccc(CNC(=O)c2cc(O)c(O)c(O)c2)c1 [Compound 1, N-(3-((4-amino-2-butyl-1H-imidazo[4,5-c]quinolin-1-yl)methyl)benzyl)-3,4,5-trihydroxybenzamide] | complete binding | undetectable | saturable |  |
| CCOCc1nc2c(N)nc3ccccc3c2n1CC(C)(C)O [Resiquimod] |  |  |  | poorly tolerated |
